From patent publication US20080269241A1, “BICYCLIC AMINOPROPYL TETRAHYDRO-PYRAZOLO-PYRIDINE MODULATORS OF CATHEPSIN S” (priority 2007, published 2008)

Molecular target: T1, human cathepsin S (CatS) (Homo sapiens, UniProt P25774)
T1 construct: made in house; host or cells: baculovirus system (insect cells)
Assay: Recombinant human cathepsin S (CatS) fluorogenic substrate inhibition assay
Assay type: biochemical
Details: recombinant human CatS, 10 μM Z-Valine-Valine-Arginine-AMC, pH 5.0; average of results obtained; read-out: CatS IC50
Protocol: Recombinant human cathepsin S (CatS) was expressed in the baculovirus system and purified in one step with a thiopropyl-sepharose column. […] The assay is run in 150 mM sodium acetate pH 5.0 containing 1.5 mM DTT and 150 mM NaCl. […] Measurements are taken every min for 20 min. The rate is calculated from the slope of the increase in fluorescence and the percent inhibition is calculated from this.

T1 sequence (P25774 115-331): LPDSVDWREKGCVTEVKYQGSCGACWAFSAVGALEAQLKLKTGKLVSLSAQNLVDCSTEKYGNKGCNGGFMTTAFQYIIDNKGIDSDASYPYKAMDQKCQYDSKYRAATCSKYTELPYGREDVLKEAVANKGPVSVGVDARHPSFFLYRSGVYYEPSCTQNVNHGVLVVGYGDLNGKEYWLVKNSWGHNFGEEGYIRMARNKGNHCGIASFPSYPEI

| IC50 [nM] | Compound |
| --- | --- |
| 90 | CCCC(=O)NCc1cc(-c2nn(CCCN3CCC(N4CCCC4=O)CC3)c3c2CN(S(C)(=O)=O)CC3)ccc1C(F)(F)F [Example 110, N-[5-(5-Methanesulfonyl-1-{3-[4-(2-oxo-pyrrolidin-1-yl)-piperidin-1-yl]-propyl}-4,5,6,7-tetrahydro-1H-pyrazolo[4,3-c]pyridin-3-yl)-2-trifluoromethyl-benzyl]-butyramide] |
| 100 | CS(=O)(=O)N1CCc2c(c(-c3ccc(C(F)(F)F)c(CNC(=O)CC4CCCCC4)c3)nn2CCCN2CCC(N3CCCC3=O)CC2)C1 [Example 111, 2-Cyclohexyl-N-[5-(5-methanesulfonyl-1-{3-[4-(2-oxo-pyrrolidin-1-yl)-piperidin-1-yl]-propyl}-4,5,6,7-tetrahydro-1H-pyrazolo[4,3-c]pyridin-3-yl)-2-trifluoromethyl-benzyl]-acetamide] |
| 100 | CS(=O)(=O)N1CCc2c(c(-c3ccc(C(F)(F)F)c(CNC(=O)N4CCCCC4)c3)nn2CC(O)CN2CCC(N3CCCC3=O)CC2)C1 (centres unmarked) [Example 112, Piperidine-1-carboxylic acid 5-(1-{2-hydroxy-3-[4-(2-oxo-pyrrolidin-1-yl)-piperidin-1-yl]-propyl}-5-methanesulfonyl-4,5,6,7-tetrahydro-1H-pyrazolo[4,3-c]pyridin-3-yl)-2-trifluoromethyl-benzylamide] |
| 100 | CS(=O)(=O)N1CCc2c(c(-c3ccc(C(F)(F)F)c(CNC(=O)c4cscn4)c3)nn2CC(O)CN2CCC(N3CCCC3=O)CC2)C1 (centres unmarked) [Example 114, Thiazole-4-carboxylic acid 5-(1-{2-hydroxy-3-[4-(2-oxo-pyrrolidin-1-yl)-piperidin-1-yl]-propyl}-5-methanesulfonyl-4,5,6,7-tetrahydro-1H-pyrazolo[4,3-c]pyridin-3-yl)-2-trifluoromethyl-benzylamide] |
| 140 | CS(=O)(=O)c1ccc(C(=O)NCc2cc(-c3nn(CC(O)CN4CCC(N5CCCC5=O)CC4)c4c3CN(S(C)(=O)=O)CC4)ccc2C(F)(F)F)s1 (centres unmarked) [Example 119, 5-Methanesulfonyl-thiophene-2-carboxylic acid 5-(1-{2-hydroxy-3-[4-(2-oxo-pyrrolidin-1-yl)-piperidin-1-yl]-propyl}-5-methanesulfonyl-4,5,6,7-tetrahydro-1H-pyrazolo[4,3-c]pyridin-3-yl)-2-trifluoromethyl-benzylamide] |
| 140 | CS(=O)(=O)N1CCc2c(c(-c3ccc(C(F)(F)F)c(CNC(=O)c4ccc5[nH]c(=O)[nH]c5c4)c3)nn2CC(O)CN2CCC(N3CCCC3=O)CC2)C1 (centres unmarked) [Example 120, 2-Oxo-2,3-dihydro-1H-benzoimidazole-5-carboxylic acid 5-(1-{2-hydroxy-3-[4-(2-oxo-pyrrolidin-1-yl)-piperidin-1-yl]-propyl}-5-methanesulfonyl-4,5,6,7-tetrahydro-1H-pyrazolo[4,3-c]pyridin-3-yl)-2-trifluoromethyl-benzylamide] |
| 150 | CS(=O)(=O)N1CCc2c(c(-c3ccc(C(F)(F)F)c(CNC(=O)c4ccc(-c5ccccn5)s4)c3)nn2CC(O)CN2CCC(N3CCCC3=O)CC2)C1 (centres unmarked) [Example 121, 5-Pyridin-2-yl-thiophene-2-carboxylic acid 5-(1-{2-hydroxy-3-[4-(2-oxo-pyrrolidin-1-yl)-piperidin-1-yl]-propyl}-5-methanesulfonyl-4,5,6,7-tetrahydro-1H-pyrazolo[4,3-c]pyridin-3-yl)-2-trifluoromethyl-benzylamide] |
| 170 | CN1CCOc2cc(C(=O)NCc3cc(-c4nn(CC(O)CN5CCC(N6CCCC6=O)CC5)c5c4CN(S(C)(=O)=O)CC5)ccc3C(F)(F)F)ccc21 (centres unmarked) [Example 122, 4-Methyl-3,4-dihydro-2H-benzo[1,4]oxazine-7-carboxylic acid 5-(1-{2-hydroxy-3-[4-(2-oxo-pyrrolidin-1-yl)-piperidin-1-yl]-propyl}-5-methanesulfonyl-4,5,6,7-tetrahydro-1H-pyrazolo[4,3-c]pyridin-3-yl)-2-trifluoromethyl-benzylamide] |
| 180 | Cc1nn(C)c2sc(C(=O)NCc3cc(-c4nn(CC(O)CN5CCC(N6CCCC6=O)CC5)c5c4CN(S(C)(=O)=O)CC5)ccc3C(F)(F)F)cc12 (centres unmarked) [Example 123, 1,3-Dimethyl-1H-thieno[2,3-c]pyrazole-5-carboxylic acid 5-(1-{2-hydroxy-3-[4-(2-oxo-pyrrolidin-1-yl)-piperidin-1-yl]-propyl}-5-methanesulfonyl-4,5,6,7-tetrahydro-1H-pyrazolo[4,3-c]pyridin-3-yl)-2-trifluoromethyl-benzylamide] |
| 180 | CS(=O)(=O)N1CCc2c(c(-c3ccc(C(F)(F)F)c(CNC(=O)c4ccc[nH]4)c3)nn2CC(O)CN2CCC(N3CCCC3=O)CC2)C1 (centres unmarked) [Example 124, 1H-Pyrrole-2-carboxylic acid 5-(1-{2-hydroxy-3-[4-(2-oxo-pyrrolidin-1-yl)-piperidin-1-yl]-propyl}-5-methanesulfonyl-4,5,6,7-tetrahydro-1H-pyrazolo[4,3-c]pyridin-3-yl)-2-trifluoromethyl-benzylamide] |
| 200 | CSCC(=O)NCc1cc(-c2nn(CCCN3CCC(N4CCCC4=O)CC3)c3c2CN(S(C)(=O)=O)CC3)ccc1C(F)(F)F [Example 125, N-[5-(5-Methanesulfonyl-1-{3-[4-(2-oxo-pyrrolidin-1-yl)-piperidin-1-yl]-propyl}-4,5,6,7-tetrahydro-1H-pyrazolo[4,3-c]pyridin-3-yl)-2-trifluoromethyl-benzyl]-2-methylsulfanyl-acetamide] |
| 210 | CS(=O)(=O)N1CCc2c(c(-c3ccc(C(F)(F)F)c(CNC(=O)c4cccnc4)c3)nn2CC(O)CN2CCC(N3CCCC3=O)CC2)C1 (centres unmarked) [Example 126, N-[5-(1-{2-Hydroxy-3-[4-(2-oxo-pyrrolidin-1-yl)-piperidin-1-yl]-propyl}-5-methanesulfonyl-4,5,6,7-tetrahydro-1H-pyrazolo[4,3-c]pyridin-3-yl)-2-trifluoromethyl-benzyl]-nicotinamide] |
| 220 | CC(C)(C)OC(=O)N1CCC(C(=O)NCc2cc(-c3nn(CC(O)CN4CCC(N5CCCC5=O)CC4)c4c3CN(S(C)(=O)=O)CC4)ccc2C(F)(F)F)CC1 (centres unmarked) [Example 127, 4-[5-(1-{2-Hydroxy-3-[4-(2-oxo-pyrrolidin-1-yl)-piperidin-1-yl]-propyl}-5-methanesulfonyl-4,5,6,7-tetrahydro-1H-pyrazolo[4,3-c]pyridin-3-yl)-2-trifluoromethyl-benzylcarbamoyl]-piperidine-1-carboxylic acid tert-butyl ester] |
| 240 | CS(=O)(=O)N1CCc2c(c(-c3ccc(C(F)(F)F)c(CNC(=O)c4ccncc4)c3)nn2CC(O)CN2CCC(N3CCCC3=O)CC2)C1 (centres unmarked) [Example 128, N-[5-(1-{2-Hydroxy-3-[4-(2-oxo-pyrrolidin-1-yl)-piperidin-1-yl]-propyl}-5-methanesulfonyl-4,5,6,7-tetrahydro-1H-pyrazolo[4,3-c]pyridin-3-yl)-2-trifluoromethyl-benzyl]-isonicotinamide] |
| 250 | CC(=O)Nc1cc(C(=O)NCc2cc(-c3nn(CC(O)CN4CCC(N5CCCC5=O)CC4)c4c3CN(S(C)(=O)=O)CC4)ccc2C(F)(F)F)ccn1 (centres unmarked) [Example 129, 2-Acetylamino-N-[5-(1-{2-hydroxy-3-[4-(2-oxo-pyrrolidin-1-yl)-piperidin-1-yl]-propyl}-5-methanesulfonyl-4,5,6,7-tetrahydro-1H-pyrazolo[4,3-c]pyridin-3-yl)-2-trifluoromethyl-benzyl]-isonicotinamide] |
| 270 | CS(=O)(=O)N1CCc2c(c(-c3ccc(C(F)(F)F)c(CNC(=O)C4CCCCCC4)c3)nn2CC(O)CN2CCC(N3CCCC3=O)CC2)C1 (centres unmarked) [Example 130, Cycloheptanecarboxylic acid 5-(1-{2-hydroxy-3-[4-(2-oxo-pyrrolidin-1-yl)-piperidin-1-yl]-propyl}-5-methanesulfonyl-4,5,6,7-tetrahydro-1H-pyrazolo[4,3-c]pyridin-3-yl)-2-trifluoromethyl-benzylamide] |
| 270 | CC(O)CC(=O)NCc1cc(-c2nn(CCCN3CCC(N4CCCC4=O)CC3)c3c2CN(S(C)(=O)=O)CC3)ccc1C(F)(F)F (centres unmarked) [Example 131, 3-Hydroxy-N-[5-(5-methanesulfonyl-1-{3-[4-(2-oxo-pyrrolidin-1-yl)-piperidin-1-yl]-propyl}-4,5,6,7-tetrahydro-1H-pyrazolo[4,3-c]pyridin-3-yl)-2-trifluoromethyl-benzyl]-butyramide] |
| 340 | CS(=O)(=O)N1CCc2c(c(-c3ccc(C(F)(F)F)c(CNC(=O)c4ccc(N5CCOCC5)nc4)c3)nn2CC(O)CN2CCC(N3CCCC3=O)CC2)C1 (centres unmarked) [Example 132, N-[5-(1-{2-Hydroxy-3-[4-(2-oxo-pyrrolidin-1-yl)-piperidin-1-yl]-propyl}-5-methanesulfonyl-4,5,6,7-tetrahydro-1H-pyrazolo[4,3-c]pyridin-3-yl)-2-trifluoromethyl-benzyl]-6-morpholin-4-yl-nicotinamide] |
| 380 | Cn1cncc1C(=O)NCc1cc(-c2nn(CC(O)CN3CCC(N4CCCC4=O)CC3)c3c2CN(S(C)(=O)=O)CC3)ccc1C(F)(F)F (centres unmarked) [Example 133, 3-Methyl-3H-imidazole-4-carboxylic acid 5-(1-{2-hydroxy-3-[4-(2-oxo-pyrrolidin-1-yl)-piperidin-1-yl]-propyl}-5-methanesulfonyl-4,5,6,7-tetrahydro-1H-pyrazolo[4,3-c]pyridin-3-yl)-2-trifluoromethyl-benzylamide] |
| 380 | CS(=O)(=O)N1CCc2c(c(-c3ccc(C(F)(F)F)c(CNC(=O)c4cncs4)c3)nn2CC(O)CN2CCC(N3CCCC3=O)CC2)C1 (centres unmarked) [Example 134, Thiazole-5-carboxylic acid 5-(1-{2-hydroxy-3-[4-(2-oxo-pyrrolidin-1-yl)-piperidin-1-yl]-propyl}-5-methanesulfonyl-4,5,6,7-tetrahydro-1H-pyrazolo[4,3-c]pyridin-3-yl)-2-trifluoromethyl-benzylamide] |
